Source: patent US20120045501A1, “CONNEXIN ENHANCES CHEMOTHERAPY-INCLUDED APOPTOSIS IN HUMAN CANCER CELLS INHIBITING TUMOR CELL PROLIFERATION” (Northwest Hospital, priority 2001, published 2012)
pIC50: −log10 of the molar value.

Experiments:
U251N23 cells [1] = test: Gap junction communication, Lucifer yellow dye transfer; format: cell-based, human; details: U251N23, GA 25 μM
Procedure: (§1) Gap junctional communication (GJC) was assayed by transfer of the fluorescent Lucifer yellow (LY) after single-cell micro-injection, as described previously (Huang et al., Cancer Res. 58:5089-5096 (1998)). Cells were observed under a fluorescence-inverted microscope after micro-injection at the given time points, and the number of neighboring cells labeled with fluorescent dye was recorded.
(§2) It was next determined whether cx43-mediated apoptosis was related to gap junctional communication (GJC). […] Since Lucifer yellow dye transfer may not accurately reflect the ability of intracellular substances to pass through gap junctions, apoptosis was examined in response to VP16 in the presence of α-Glycyrrhetinic acid (GA), which inhibits GJC (Davidson et al., Biochem. Biophys. Res. Commun. 134:29-36 (1986); Davidson and Baumgarten, J. Pharmacol. Exp. Ther. 266:1104-1107 (1988)). […] Consistent with previous studies, both cx43- and control-transfected cells poorly communicated each other as examined by Lucifer yellow dye transfer experiment. The effect of GA was not obvious due to poor GJC in untreated U251 cells. […] Thus, the difference in apoptosis is probably due to the presence of cx43 itself rather than GJC. Furthermore, cx43-transfected cells expressed only non-phosphorylated cx43 in both mock- and VP 16-treated cells. In contrast, when the same experimental procedure was used to detect cx43 in primary astrocytes and T51B cells, several phosphorylated isoforms were clearly observed (Huang et al., Cancer Res. 58:5089-5096 (1998)). It is generally believed that phosphorylated forms of cx43 are involved in GJC (Hossain et al., J. Cell Physiol. 174:66-77 (1998)). Therefore it is likely that cx43-mediated apoptosis in response to VP16 is not related to its gap junctional communication effect.

U251cx43-216 cells [2] = test: as above; format: cell-based, human; details: U251cx43-216, GA 25 μM
Procedure: as §1, §2

[3] = tested on: cx43- or control-transfected cells; test: Apoptosis in response to VP16 in the presence of GA; format: cell-based, human; details: cx43- and control-transfected cells
Text: as §2, with “Therefore it is likely that cx43-mediated apoptosis in response to VP16 is not related to its gap junctional communication effect.” left out

[4] = tested on: T51B rat liver epithelial cells; test: Gap junction communication, Lucifer yellow dye transfer; format: cell-based
Procedure: as §1
as §2, with “In contrast, when the same experimental procedure was used to detect cx43 in primary astrocytes and T51B cells, several phosphorylated isoforms were clearly observed (Huang et al., Cancer Res. 58:5089-5096 (1998)). It is generally believed that phosphorylated forms of cx43 are involved in GJC (Hossain et al., J. Cell Physiol. 174:66-77 (1998)). Therefore it is likely that cx43-mediated apoptosis in response to VP16 is not related to its gap junctional communication effect.” left out

U251N23 cells [5] = test: Clonogenicity (cell survival) assay; format: cell-based, human
Procedure: (§3) The surviving cell fraction was determined by clonogenicity assay as previously described (Huang et al., J. Cell Biol. 133:211-220 (1996)). Cells were seeded at a density of 500 cells per 60 mm plate and incubated overnight and then treated with drugs; culture was then continued for 3 weeks. Clones were fixed in 4% formaldehyde-PBS and stained with Giemsa solution. Colonies containing more than 50 cells were counted and the fraction of surviving cells was calculated. The results represented the average of three separate experiments.
(§4) Values at OD 570 reflect the relative number of viable cells.

U251cx43-216 cells [6] = test: Clonogenicity (cell survival) assay; format: cell-based, human
Procedure: as §3, §4

U251cx43-216 cells [7] = test: MTT cell viability assay; details: Homo sapiens, 144 h
U251N23 cells [8] = test: MTT cell viability assay; format: cell-based; details: Homo sapiens, 144 h, day 6 after treatment, U251N23 (control-transfected)
Procedure: In vitro viability was determined by the 3-(4,5-dimethylthiazol-2yl)-2,5-diphenyltetrazolium bromide (MTT) colorimetric assay as described in (Huang et al., Cancer Res. 55:5054-5062 (1995)). Cells (1×10^3) were plated in triplicate in 96 well microplates overnight and treated with 5 different concentrations of VP16, Tax and DOX, respectively. […] Absorbance values at 570 nm were plotted as a measure of the relative number of cells. […] Both methods gave the identical results.
as §4

[9] = tested on: control-transfected cells (U251N2 and U251N23); test: Apoptosis by Hoechst dye staining after Tax; format: cell-based, human; details: 4×10^−9 M, four days after treatment
Procedure: (§5) The assay was performed as we previously described (Huang et al., Cell Death Differ. 5:96-106 (1998)). Briefly, cells were fixed in Carnoy's solution (methanol:glacial […]; 3:1) and stained with 5 μg/ml of bisbenzimide trihydrochloride (Hoechst 33258) for 20 min. The morphology of nuclei was then observed with a Zeiss (Thornwood, N.Y.) photomicroscope II. At least 500 nuclei in each cell line were counted. Experiments were repeated four times.
(§6) Cx43-transfected cells (U251cx43-216 and U251cx43-217) and control-transfected cells (U251N2 and U251N23) were treated with different concentrations of Tax (0, 10^−9, and 4×10^−9). Four days after treatment, cells were analyzed for apoptosis by Hoechst dye staining.

[10] = tested on: Cx43-transfected cells (U251cx43-216 and U251cx43-217); test: Apoptosis by Hoechst dye staining after Tax; format: cell-based, human
Procedure: as §5, §6

cx43-transfected cells = test: Cell proliferation in presence of cytokine or conditioned medium; format: cell-based, human
Procedure: The experiment was performed as described in Huang et al., (Cancer Res. 55:5054-5062 (1995); and Oncogene 10:467-475 (1995)). Briefly, cells were seeded in 96-well plates. 24 hr later, cells were incubated in the presence of cytokine or conditioned medium for 48 hours. 0.5 μCi of ^3H-thymidine was added to each well and incubation was continuous for 24 hr. The incorporated ^3H-thymidine was then determined by a scintillation counter.
The down-regulation of MCP-1 in cx43-transfected cells raised the question of whether reversion of the transformed phenotype in cx43-transfected cell was mediated by the reduction of MCP-1 expression. To test this possibility, anti-MCP-1 neutralization antibody was added into the tissue culture medium to block the MCP-1 activity and to examine the cell proliferation by CyQUANT cell proliferation assay.

[11] = tested on: Cx43-transfected clones and control-transfected clones; test: Apoptosis in the presence of MCP-1 or anti-MCP-1 antibody; format: cell-based, human; details: normal culture conditions, low serum conditions or in response to chemotherapeutic drugs
Procedure: Cx43-transfected clones and control-transfected clones were assayed for apoptosis in the presence of MCP-1 or anti-MCP-1 antibody. […] Therefore, enhanced apoptosis under low serum conditions and decreased cell growth in cx43-transfected cells involves at least two separate pathways.

U251cx43-217 cells = test: Soft agar colony formation assay; format: cell-based, human
Procedure: (§7) Soft agar assay were performed as described previously (Huang, et al., Cancer Res. 58:5089-5096 (1998); Huang, et al., Mol. Carcinog. 30:209-217 (2001); Huang, et al., Carcinogenesis 20:485-492 (1999)). Briefly, cx43-transfected cells and control-transfected cells were assayed by seeding 1,000 cells in 0.26% agar medium into 6 well plates previously lined with 0.65% agar medium. The plates (in duplicate and repeated twice) were cultured for 3-4 weeks in the presence of different treatments and then stained with p-iodotetrazolium violet for overnight before photography and counting. Colony size equal to or greater than 15,625 μm^2 was scored as positive.
(§8) To examine the effect of down-regulation of MCP-1 on the transformed growth, cx43-transfected and control-transfected clones were assayed for their anchorage-independent growth in soft agar in the presence of MCP-1.

U251cx43-216 cells [12] = test: Soft agar colony formation assay; format: cell-based, human
Procedure: as §7, §8

[13] = U251cx43-216, 1 × 10^−9, 3 weeks
[14] = U251cx43-216, 4 × 10^−9, 3 weeks
[15] = U251cx43-216, 4 × 10^−10, 3 weeks

Molecule: CC1(C)[C@@H](O)CC[C@]2(C)[C@H]3C(=O)C=C4[C@@H]5C[C@@](C)(C(=O)O)CC[C@]5(C)CC[C@@]4(C)[C@]3(C)CC[C@@H]12 [GA, α-Glycyrrhetinic acid]
- No. of Fluorescent Neighboring cells after GA treatment (U251N23 cells [1]; 5 min): 0.7 +/− 1.1
- No. of Fluorescent Neighboring cells after GA treatment (U251N23 cells [1]; 24 h): 2.2 +/− 3.7
- No. of Fluorescent Neighboring cells after GA treatment (U251N23 cells [1]; 48 h): 0.9 +/− 1.9
- No. of Fluorescent Neighboring cells after GA treatment (U251N23 cells [1]; 72 h): 2.4 +/− 4.1
- No. of Fluorescent Neighboring cells after GA treatment (U251cx43-216 cells [2]; 5 min): 0.6 +/− 1.3
- No. of Fluorescent Neighboring cells after GA treatment (U251cx43-216 cells [2]; 24 h): 0 +/− 0
- No. of Fluorescent Neighboring cells after GA treatment (U251cx43-216 cells [2]; 48 h): 0.6 +/− 1.1
- No. of Fluorescent Neighboring cells after GA treatment (U251cx43-216 cells [2]; 72 h): 0.1 +/− 0.3
- alteration of apoptosis in response to VP16 in the presence of α-Glycyrrhetinic acid [3]: No significant alteration of apoptosis
- effect on GJC ([4]; T51B cells): completely blocked GJC
- No. of Fluorescent Neighboring cells after GA treatment ([4]; T51B, GA 25 μM, 5 min): 0 +/− 0

Molecule: COc1cccc2c1C(=O)c1c(O)c3c(c(O)c1C2=O)C[C@@](O)(C(=O)CO)C[C@@H]3O[C@H]1C[C@H](N)[C@H](O)[C@H](C)O1 [DOX, Doxorubicin]
- Colony formation (colonies counted) (U251N23 cells [5]; U251N23, 1 × 10^−9, 3 weeks): 15 +/− 5
- Colony formation (colonies counted) (U251N23 cells [5]; U251N23, 4 × 10^−9, 3 weeks): 6 +/− 0
- Colony formation (colonies counted) (U251N23 cells [5]; U251N23, 4 × 10^−10, 3 weeks): 147 +/− 14
- Colony formation (colonies counted) (U251cx43-216 cells [6]; [13]): 6 +/− 1
- Colony formation (colonies counted) (U251cx43-216 cells [6]; [14]): 2 +/− 3
- Colony formation (colonies counted) (U251cx43-216 cells [6]; [15]): 70 +/− 6
- pIC50 (U251cx43-216 cells [7]): 9.09
- pIC50 (U251N23 cells [8]): 8.75

Molecule: CC(=O)O[C@H]1C(=O)[C@@]2(C)[C@H]([C@H](OC(=O)c3ccccc3)[C@]3(O)C[C@H](OC(=O)[C@H](O)[C@@H](NC(=O)c4ccccc4)c4ccccc4)C(C)=C1C3(C)C)[C@]1(OC(C)=O)CO[C@@H]1C[C@@H]2O [Tax, Paclitaxel]
- Colony formation (colonies counted) (U251N23 cells [5]; U251N23, 1 × 10^−9, 3 weeks): 37 +/− 6
- Colony formation (colonies counted) (U251N23 cells [5]; U251N23, 4 × 10^−9, 3 weeks): 16 +/− 2
- Colony formation (colonies counted) (U251N23 cells [5]; U251N23, 4 × 10^−10, 3 weeks): 108 +/− 9
- Colony formation (colonies counted) (U251cx43-216 cells [6]; [13]): 9 +/− 5
- Colony formation (colonies counted) (U251cx43-216 cells [6]; [14]): 4 +/− 3
- Colony formation (colonies counted) (U251cx43-216 cells [6]; [15]): 54 +/− 5
- pIC50 (U251cx43-216 cells [7]): 9.15
- apoptotic cells [9]: about 17%
- increase in apoptosis, cx43-expressing vs control-transfected cells ([10]; Tax treatment, four days): 3- to 4 fold
- cells displaying typical features of apoptosis ([10]; cx43-transfected cells, 4×10^−9 M, four days after treatment): about 65%
- pIC50 (U251N23 cells [8]): 8.82

Molecule: MCP-1: Monocyte chemotactic protein-1 (MCP-1) is a member of the CC chemokine family
- effect on cell proliferation rate (cx43-transfected cells): specifically stimulated
- effect on apoptosis [11]: did not have any effect
- Colony formation in soft agar (U251cx43-217 cells; U251cx43-217, MCP-1 0.1 ng/ml): 18.0 ± 2.83
- Colony formation in soft agar (U251cx43-217 cells; U251cx43-217, MCP-1 1 ng/ml): 24.5 ± 2.12
- Colony formation in soft agar (U251cx43-217 cells; U251cx43-217, MCP-1 10 ng/ml): 22.5 ± 3.53
- Colony formation in soft agar (U251cx43-217 cells; U251cx43-217, MCP-1 100 ng/ml): 20.5 ± 2.12
- Colony formation in soft agar (U251cx43-216 cells [12]; U251cx43-216, MCP-1 0.1 ng/ml): 18.0 ± 2.83
- Colony formation in soft agar (U251cx43-216 cells [12]; U251cx43-216, MCP-1 1 ng/ml): 37.5 ± 3.53
- Colony formation in soft agar (U251cx43-216 cells [12]; U251cx43-216, MCP-1 10 ng/ml): 28.5 ± 4.95
- Colony formation in soft agar (U251cx43-216 cells [12]; U251cx43-216, MCP-1 100 ng/ml): 36.0 ± 5.65
